Source: patent US20170057917A1, “Polymorphs of Lomitapide and its Salts” (Hetero Research Foundation, priority 2014, published 2017)

Test: Hygroscopicity of the amorphous form
Format: physicochemical
Details: solid amorphous form; normally amorphous Forms are hygroscopic

Question: Which hygroscopicity does the source give for `CS(=O)(=O)O.O=C(NC1CCN(CCCCC2(C(=O)NCC(F)(F)F)c3ccccc3-c3ccccc32)CC1)c1ccccc1-c1ccc(C(F)(F)F)cc1` [Amorphous Lomitapide mesylate] here?
Answer: The hygroscopicity was “non-hygroscopic”.
